How the values were obtained:
[1] = system: whole cell lysates of rat fibroblasts; assay: Staining of two-dimensional gels of rat fibroblast lysates (Example 23); settings: 2-D gel, photography with 490-nm long pass filter
Procedure: The non-fixative nature of the staining solution is illustrated by evaluating passive elution of proteins from a polyacrylamide matrix. Passive diffuision of proteins is evaluated by staining two-dimensional gels in 7% acetic acid or in phosphate-buffered saline using Compound 9. Whole cell lysates of rat fibroblasts are extracted according to standard procedures for mammalian cells. Approximately 50 μg total protein is applied per gel and large format two dimensional gel electrophoresis is performed by standard methods. Compound 9 staining solution is prepared by diluting the stock reagent to 2 μM in either 7.5% acetic acid or 50 mM Na2HPO4, 150 mM NaCl, pH 7.0 while vigorously mixing. Approximately 500-750 mL of Compound 9 staining solution is used for a typical large format 2-D gel (20 cm×20 cm×1 mm). The gel is placed into the staining solution and the container is covered with aluminum foil to protect the dye from bright light. The gel is gently agitated for at least 30 minutes at room temperature using an orbital shaker (50 RPM). After staining the gel is briefly dipped in water and visualized on a UV light box. […] As little as 1 ng of protein can be visualized when the fluorescent image is recorded by photography using a cellophane 490-nm long pass filter. […]

[2] = system: proteins; assay: Dye staining and dye stability in 12.5% trichloroacetic acid
Procedure: To make a staining mixture to combine with the sample mixture, including to test new dyes for their ability to stain proteins in a variety of situations, the selected dye is typically first dissolved in an organic solvent, such as DMSO, DMF or methanol, usually to a dye concentration of 1-10 mM. This concentrated stock solution is then generally diluted with an aqueous solution according to the assay being performed. Staining solutions can be stored and used for months without signal loss. The selected dye effectively stains proteins in a wide range of buffers if 100 mM NaCl is included in the staining solution. Acceptable buffers include, among others, 50-100 mM formate buffer, pH 4.0, sodium citrate, pH 4.5, sodium acetate, pH 5.0, MES, pH 6.0, imidazole, pH 7.0, HEPES, pH 7.5, Tris acetate, pH 8.0, Tris-HCl, pH 8.5, Tris borate, pH 9.0 and sodium bicarbonate, pH 10. Dye staining can also be performed in 12.5% trichloroacetic acid. […] A 20-minute wash in water removes the background and sensitive staining is obtained. […] Acetic acid may be included in the staining mixture, typically to a concentration of 5%-7.5% acetic acid, e.g. to improve labeling of gels relative to that obtained for dyes in water. For staining polypeptides in solution, the dye is diluted into an aqueous solution—preferably a buffered solution—that optionally contains a detergent. […]

[3] = system: proteins; assay: Staining of proteins separated in presence of alternative detergents; settings: alternative detergents instead of SDS
[4] = target: BSA (Bos taurus, UniProt P02769); assay: Absorbance/emission spectra, fluorescence enhancement and quantum yield of dyes in solution +/- BSA (Example 21); format: physicochemical, bovine
Chain of BSA (P02769 25-607): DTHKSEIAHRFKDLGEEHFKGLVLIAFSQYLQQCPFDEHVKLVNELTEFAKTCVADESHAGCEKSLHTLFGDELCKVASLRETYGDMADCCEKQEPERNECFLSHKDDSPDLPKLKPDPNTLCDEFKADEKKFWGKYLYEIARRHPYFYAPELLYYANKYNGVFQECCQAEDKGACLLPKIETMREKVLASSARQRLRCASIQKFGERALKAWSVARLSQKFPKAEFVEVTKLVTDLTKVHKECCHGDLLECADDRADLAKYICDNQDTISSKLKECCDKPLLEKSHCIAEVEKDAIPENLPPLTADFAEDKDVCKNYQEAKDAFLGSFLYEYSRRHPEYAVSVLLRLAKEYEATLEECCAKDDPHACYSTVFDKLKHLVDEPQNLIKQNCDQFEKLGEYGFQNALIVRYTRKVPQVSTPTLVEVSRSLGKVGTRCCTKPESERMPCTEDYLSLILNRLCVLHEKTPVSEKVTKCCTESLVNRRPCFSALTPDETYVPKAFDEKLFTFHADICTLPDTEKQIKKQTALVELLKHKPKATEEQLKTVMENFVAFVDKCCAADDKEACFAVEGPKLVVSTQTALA
Procedure: A particular dye of this invention is generally selected for a particular assay using one or more of the following criteria: sensitivity to poly(amino acids), insensitivity to the presence of nucleic acids, dynamic range, photostability, staining time, and spectral properties. […] Although the fluorescence enhancements and quantum yields are low to moderate in solution, some are significant relative to the long wavelength emission maxima (see Table 1 and Example 21).
Measurements are performed using −1 μM dye+/−150 μg/mL BSA in 10 mM Tris-HCl, pH 7.5,+0.05% SDS with a 2.0 mL sample volume. Fluorescence enhancements are calculated at emission maxima in a standard fluorometer using 470 nm excitation. Fluorescence quantum yields are determined relative to fluorescein (in 0.1 M NaOH), using 470 nm excitation.

[5] = system: tubulin; assay: Electroblotting of tubulin from stained gels (Example 24); settings: phosphate-buffered saline staining formulation
Procedure: Tubulin was selected as a model protein since it is relatively difficult to elute from gels by simple passive diffusion (Example 23). Two-fold serial dilutions of […] ranging from 1000 to 1 ng are applied and separated by sodium dodecyl sulfate (SDS)-polyacrylamide gel electrophoresis according to standard procedures. After electrophoresis, gels are stained with either Compound 9 or SYPRO Orange dye as described in Example 23, photographed and then incubated in a transfer buffer consisting of 10 mM Tris, 96 mM glycine, 10% methanol, 0.1% sodium dodecyl sulfate, pH 8.3. Proteins are electroblotted to poly(vinylidene difluoride) (PVDF) membranes using the same transfer buffer for 120 minutes using a semi-dry blotter by standard methods. Immunoblotting is performed by standard methods and colorimetric procedures are employed to detect the tubulin using 5-bromo-4-chloroindolyl phosphate/nitroblue tetrazolium (BCIP/NBT). […] Tubulin can subsequently be visualized by using alkaline phosphatase-conjugated secondary antibody with similar detection sensitivity as electroblots of unstained, control gels. The transfer of tubulin from gels stained with SYPRO Orange dye in 7% acetic acid is not possible despite a 20-minute incubation in transfer buffer containing 0.1% sodium dodecyl sulfate prior to blotting.

[6] = system: proteins; assay: Staining protein gels with dye in the running buffer (Example 30); settings: running buffer with 0.05% SDS and 1-3 μM dye
Procedure: The proteins of interest are prepared for loading on standard SDS gels, using standard methods. Dilution series of known molecular weight markers, or proteins of unknown concentration, or protein mixtures of unknown composition are used. The gels are loaded and run under standard conditions, excepting that the running buffer contains 0.05% SDS and 1-3 μM Compound 9. The stained gels are either photographed directly after electrophoresis or are destained in 7.5% acetic acid or phosphate-buffered saline for 20-50 minutes to remove background staining prior to photography. […] In addition, the migration of protein bands can be monitored through the glass plates that support the gel, during electrophoresis. Such monitoring can either be calorimetric, since the stained protein bands are visually colored, or can be via fluorescence, if the excitation source is at visible wavelengths (such as a laser or mercury-arc lamp, for example).

[7] = 150 μg/mL BSA, 10 mM Tris-HCl, pH 7.5, 0.05% SDS
[8] = dye without BSA, 10 mM Tris-HCl, pH 7.5, 0.05% SDS

CCn1c2ccccc2c2cc(/C=C/c3cc[n+](CCCCS(=O)(=O)[O-])c4ccccc34)ccc21 [Compound 9]
Amount of protein that can be visualized (detection sensitivity) [1]: 1 ng
Staining of proteins in 12.5% trichloroacetic acid [2]: stains proteins brightly, but also with bright background fluorescence
Stability of dye on overnight exposure to 12.5% trichloroacetic acid ([2]; overnight): destroys much of the dye
Staining of proteins separated in presence of Triton X-100 or N-benzyl-N,N-dimethylhexadecylammonium chloride [3]: does not stain proteins
ABS λ max, BSA [4, 7]: 480 nm
EM λ max, BSA [4, 7]: 604 nm
FE (fluorescence enhancement, BSA) ([4]; 150 μg/mL BSA, 0.05% SDS, at emission maxima, 470 nm excitation): 92 fold
Quantum Yield (BSA) ([4]; 150 μg/mL BSA, relative to fluorescein in 0.1 M NaOH, 470 nm excitation): 0.21
ABS λ max, unbound [4, 8]: 479 nm
EM λ max, unbound [4, 8]: ~700 nm
Transfer of tubulin from stained gel by electroblotting [5]: readily transferred
Sensitivity compared with staining gels after electrophoresis [6]: about the same

Reference: patent publication US6579718B1, “Carbazolylvinyl dye protein stains” (Molecular Probes, Inc., priority 2000, dated 2003)
